Data published in US20250085201A1, “SUBSTITUTED QUADRUPOLAR FLUORESCENT DYES FOR LIVE CELL IMAGING” (Northwestern University, priority 2023, published 2025).

Key:
Type in all cases: physicochemical
[1] = Absolute fluorescence quantum yield (integrating sphere); conditions: 414 nm excitation
[2] = Transient absorption (fsTA/nsTA) and time-resolved fluorescence spectroscopy; conditions: in MeCN; for non-radiative decay rate constant kNR: kNR = kobs(1 − ΦF); for radiative decay rate constant kR: kR = kobsΦF
Excerpt: The excited-state properties of these quadrupolar dyes were investigated using transient absorption (TA) spectroscopy. The TA data of dyes 1-4 and 6 in MeCN with lex=350 nm (FIGS. 9-12 and 15) show similar spectra with the same general electronic evolution, though with differing kinetics. Following excitation, strong excited-state absorption features appear between ˜450-500 nm along with a strong single peak in the near-infrared region, both of which are associated with Sn←S1 absorptions. The visible bands redshift over the following ˜100 ps, while the near-infrared band peaks first blueshift in the initial ˜10 ps before settling. These near-infrared absorption bands are similar to those observed^59,60 in extended bipyridinium compounds. Following these shifts, the excited states decay via emission with lifetimes between 3-4 ns as confirmed by time-resolved fluorescence (TRF) spectroscopy. The spectral shape of the transient species is generally maintained throughout their lifetimes, implying that the dynamics in each dye all occur on a single electronic excited state (S1) prior to emission. The spectral shifts at early times may arise due to excited-state symmetry breaking^77-78 in the quadrupolar dyes, wherein fluctuations in the instantaneous electrostatic environment afforded by the solvent transiently favor wavefunction localization on one side of the symmetric molecule, creating an excited state with a large dipole moment that is associated with the Stokes shift observed^79 in the fluorescence spectra. This localization can lead to changes in the transient absorption spectra as a result of the breakdown^42,80 of the Laporte rule. The shifts at longer times may arise from solvent or structural relaxation of the dyes.
Steady-state and time-resolved emission spectra for dyes 1-6, 7·2PF6 and 9·4PF6 were acquired using a HORIBA Fluorolog-3 spectrofluorometer, equipped with a time-correlated single photon counting (TCSPC) module (diode laser excitation at λ=375 nm) and an integrating sphere, which was used for absolute photo-luminescence quantum yield determinations. Picosecond time-resolved fluorescence measurements were recorded using a commercial direct-diode-pumped 100 kHz amplifier (Spirit 1040-HE, Spectra-Physics), producing a fundamental beam of 1040 nm (350 fs, 12 W) which was used to pump a non-collinear optical parametric amplifier (Spirit-NOPA, SpectraPhysics) capable of delivering tunable, high-repetition-rate pulses with pulse widths as short as sub-20 fs. Dyes 1-6, 7·2PF6 and 9·4PF6 were excited with 350 nm, 2 nJ laser pulses. Fluorescence was detected using a Hamamatsu C4780 Streakscope as previously described in the literature. Samples were prepared in 2-mm quartz cuvettes. All data were acquired in the single-photon-counting mode using the Hamamatsu HPD-TA software. The temporal resolution was approximately 2% of the sweep window. Single wavelength kinetic analysis was performed using a nonlinear least-squares fit to a sum of exponentials convoluted with an instrument response function. Visible and near-infrared femtosecond and nanosecond transient absorption (fsTA and nsTA, respectively) spectroscopies were performed following descriptions already recorded in the literature. The 330 nm, ˜100 fs pump pulses were generated at 1 μJ per pulse using a commercial collinear optical parametric amplifier (TOPAS-Prime, Light-Conversion, Ltd.); 414-nm pump pulses were obtained by second-harmonic generation of the 828 nm fundamental. The pump polarization was randomized using a commercial depolarizer (DPU-25-A, Thorlabs, Inc.) to eliminate any orientational dynamics resulting from the experiment. Spectra were collected on commercial spectrometers (customized Ultrafast Systems Helios and EOS spectrometers, for fsTA and nsTA, respectively) for each time window. All samples were stirred to avoid localized heating or degradation effects. The optical density was maintained at 0.6 for all samples. […]

[3] = Absolute fluorescence quantum yield (integrating sphere); conditions: in MeCN
Protocol: (§1) Fluorescent dyes were dissolved in the appropriate solvents to afford 1 mM solutions prior to spectroscopic analysis. A portion of 30 μL of a 1 mM solution was diluted by adding a selected solvent to a sample with a total volume of 3000 μL, affording a 1×10^−5 M solution. UV/Vis Absorption spectra were recorded in glass cuvettes on a UV-3600 Shimadzu spectrophotometer. Steady-state emission spectra were acquired in quartz cuvettes with optical path-lengths of 10 mm containing the solution being analyzed using a HORIBA Fluoromax4 spectrofluorometer, which was equipped with an integrating sphere for determining the absolute photoluminescence quantum yield.
Steady-state and time-resolved emission spectra for dyes 1-6, 7·2PF6 and 9·4PF6 were acquired using a HORIBA Fluorolog-3 spectrofluorometer, equipped with a time-correlated single photon counting (TCSPC) module (diode laser excitation at λ=375 nm) and an integrating sphere, which was used for absolute photo-luminescence quantum yield determinations. Picosecond time-resolved fluorescence measurements were recorded using a commercial direct-diode-pumped 100 kHz amplifier (Spirit 1040-HE, Spectra-Physics), producing a fundamental beam of 1040 nm (350 fs, 12 W) which was used to pump a non-collinear optical parametric amplifier (Spirit-NOPA, SpectraPhysics) capable of delivering tunable, high-repetition-rate pulses with pulse widths as short as sub-20 fs. Dyes 1-6, 7·2PF6 and 9·4PF6 were excited with 350 nm, 2 nJ laser pulses. Fluorescence was detected using a Hamamatsu C4780 Streakscope as previously described in the literature. Samples were prepared in 2-mm quartz cuvettes. All data were acquired in the single-photon-counting mode using the Hamamatsu HPD-TA software. The temporal resolution was approximately 2% of the sweep window. Single wavelength kinetic analysis was performed using a nonlinear least-squares fit to a sum of exponentials convoluted with an instrument response function. Visible and near-infrared femtosecond and nanosecond transient absorption (fsTA and nsTA, respectively) spectroscopies were performed following descriptions already recorded in the literature. The 330 nm, ˜100 fs pump pulses were generated at 1 μJ per pulse using a commercial collinear optical parametric amplifier (TOPAS-Prime, Light-Conversion, Ltd.); 414-nm pump pulses were obtained by second-harmonic generation of the 828 nm fundamental. The pump polarization was randomized using a commercial depolarizer (DPU-25-A, Thorlabs, Inc.) to eliminate any orientational dynamics resulting from the experiment. Spectra were collected on commercial spectrometers (customized Ultrafast Systems Helios and EOS spectrometers, for fsTA and nsTA, respectively) for each time window. All samples were stirred to avoid localized heating or degradation effects. The optical density was maintained at 0.6 for all samples.
Steady-state and time-resolved emission spectra for dyes 7·2PF6 and 9·4PF6 were acquired using a HORIBA Fluorolog-3 spectrofluorometer, equipped with a time-correlated single photon counting (TCSPC) module (diode laser excitation at =375 nm) and an integrating sphere, which was used for absolute photo-luminescence quantum yield determinations. Picosecond time-resolved fluorescence measurements were recorded using a commercial direct-diode-pumped 100 kHz amplifier (Spirit 1040-HE, Spectra-Physics), producing a fundamental beam of 1040 nm (350 fs, 12 W) which was used to pump a non-collinear optical parametric amplifier (Spirit-NOPA, SpectraPhysics) capable of delivering tunable, high-repetition-rate pulses with pulse widths as short as sub-20 fs. The samples 7·2PF6 and 9·4PF6 were excited with […], 2 nJ laser pulses. Fluorescence was detected using a Hamamatsu C4780 Streakscope as previously described in the literature.^71 Samples were prepared in 2-mm quartz cuvettes. All data were acquired in the single-photon-counting mode using the Hamamatsu HPD-TA software. […]

Solubility (qualitative) = conditions: PF6− salt; e.g. MeCN, Me2CO, DMF
[4] = Steady-state UV/Vis absorption and fluorescence emission spectra; conditions: THF, 10 μM
Protocol: Fluorescent dyes 1-6, 7·2PF6, 8·2PF6, 9·4PF6 and 9·4Cl were dissolved in THF (1-5), MeCN (6, 7·2PF6, 8·2PF6 and 9.4PF6) and H2O (9.4Cl), respectively, to afford 10 μM solutions prior to spectroscopic analysis. For comparison, their normalized (i) UV/Vis absorption (FIG. 2) and (ii) the fluorescence emission (FIG. 3) spectra of quadrupolar dyes are overlayed, displaying a large range of S1 absorbance and emission maxima, which rely highly on their quadrupolarity that is correlated to the electron-deficiency of the ARs.
as §1

[5] = Transient absorption (fsTA/nsTA) and time-resolved fluorescence spectroscopy; conditions: in PhMe

| Quantum Yield (ΦF) [3] | UV absorption band centre [4] [nm] | emission λem [4] [nm] | SMILES | ΦF in the solid-state (powder) [1] | excited-state (emissive) lifetime [2] [ns] | rate constant k1 from TA data [2] | rate constant k2 from TA data [2] | rate constant k3 from TA data [2] | rate constant k4 from TA data [2] | non-radiative decay rate constant kNR [2] | radiative decay rate constant kR [2] | solubility in polar organic solvents (Solubility (qualitative)) | CT state decay back to the ground state ([2]; excited at 350 nm) [ns] | initially excited state (S1) decay time ([2]; excited at 350 nm) [ps] | non-radiative decay rate constant kNR ([2]; kobs = k1) | triplet state lifetime (diffusional quenching-limited) ([5]; deaerated solution) [µs] | CT state decay to triplet state ([5]; excited at 350 nm) [ns] | S1 state decay time ([5]; excited at 350 nm) [ps] |
| --- | --- | --- | --- | --- | --- | --- | --- | --- | --- | --- | --- | --- | --- | --- | --- | --- | --- | --- |
| 0.13 | 316 | 380 | CCCCCCCCOc1cc(-c2ccc(F)cc2)c(OCCCCCCCC)cc1-c1ccc(F)cc1 [Dye 1] | – | – | (5.4 ± 0.6 ps)^−1 (ps)^−1 | (83 ± 7 ps)^−1 (ps)^−1 | (3.38 ± 0.03 ns)^−1 (ns)^−1 | (155 ± 3 ns)^−1 (ns)^−1 | (3.89 ± 0.02 ns)^−1 (ns)^−1 | – | – | – | – | – | – | – | – |
| 0.56 | – | – | CCCCCCCCOc1cc(-c2ccc(C(F)(F)F)cc2)c(OCCCCCCCC)cc1-c1ccc(C(F)(F)F)cc1 [Dye 2] | – | – | (1.4 ± 0.3 ps)^−1 (ps)^−1 | (85 ± 2 ps)^−1 (ps)^−1 | (3.16 ± 0.01 ns)^−1 (ns)^−1 | (150 ± 2 ns)^−1 (ns)^−1 | (7.2 ± 0.1 ns)^−1 (ns)^−1 | (5.64 ± 0.05 ns)^−1 (ns)^−1 | – | – | – | – | – | – | – |
| 0.81 | – | – | CCCCCCCCOc1cc(-c2ccc(C#N)cc2)c(OCCCCCCCC)cc1-c1ccc(C#N)cc1 [Dye 3] | – | – | (0.8 ± 0.3 ps)^−1 (ps)^−1 | (99 ± 2 ps)^−1 (ps)^−1 | (4.23 ± 0.02 ns)^−1 (ns)^−1 | (314 ± 1 ns)^−1 (ns)^−1 | (22.3 ± 0.6 ns)^−1 (ns)^−1 | (5.22 ± 0.03 ns)^−1 (ns)^−1 | – | – | – | – | – | – | – |
| 0.78 | – | – | CCCCCCCCOc1cc(-c2ccc(C(=O)OC)cc2)c(OCCCCCCCC)cc1-c1ccc(C(=O)OC)cc1 [Dye 4] | – | – | (0.7 ± 0.3 ps)^−1 (ps)^−1 | (132 ± 7 ps)^−1 (ps)^−1 | (3.80 ± 0.01 ns)^−1 (ns)^−1 | (210 ± 2 ns)^−1 (ns)^−1 | (17.3 ± 0.4 ns)^−1 (ns)^−1 | – | – | – | – | – | – | – | – |
| <0.005 | – | – | CCCCCCCCOc1cc(-c2ccc([N+](=O)[O-])cc2)c(OCCCCCCCC)cc1-c1ccc([N+](=O)[O-])cc1 [Dye 5] | – | – | (4.3 ± 0.3 ps)^−1 (ps)^−1 | (28 ± 2 ps)^−1 (ps)^−1 | (102.7 ± 0.3 ns)^−1 (ns)^−1 | – | – | <(0.9 ns)^−1 (ns)^−1 | – | 102 | 4.3±0.3 | >(4 ps)^−1 (ps)^−1 | 1 | 18 | 7.9±0.3 |

| SMILES | Quantum Yield (ΦF) [3] | UV absorption band centre [4] [nm] | emission λem [4] [nm] | ΦF in the solid-state (powder) [1] | excited-state (emissive) lifetime [2] [ns] | rate constant k1 from TA data [2] | rate constant k2 from TA data [2] | rate constant k3 from TA data [2] | rate constant k4 from TA data [2] | non-radiative decay rate constant kNR [2] | radiative decay rate constant kR [2] | solubility in polar organic solvents (Solubility (qualitative)) | CT state decay back to the ground state ([2]; excited at 350 nm) [ns] | initially excited state (S1) decay time ([2]; excited at 350 nm) [ps] | non-radiative decay rate constant kNR ([2]; kobs = k1) | triplet state lifetime (diffusional quenching-limited) ([5]; deaerated solution) [µs] | CT state decay to triplet state ([5]; excited at 350 nm) [ns] | S1 state decay time ([5]; excited at 350 nm) [ps] |
| --- | --- | --- | --- | --- | --- | --- | --- | --- | --- | --- | --- | --- | --- | --- | --- | --- | --- | --- |
| COc1cc2c(OC)cc1-c1cc[n+](cc1)Cc1ccc(cc1)C[n+]1ccc(cc1)-c1cc(OC)c(cc1OC)-c1cc[n+](cc1)Cc1ccc(cc1)C[n+]1ccc-2cc1 [9·4PF6] | 0.28 | – | – | 0.030±0.005 | 3.45±0.01 | (1.4 ± 0.3 ps)^−1 (ps)^−1 | (188 ± 4 ps)^−1 (ps)^−1 | (3.45 ± 0.01 ns)^−1 (ns)^−1 | (450 ± 70 ns)^−1 (ns)^−1 | (4.79 ± 0.03 ns)^−1 (ns)^−1 | (12.3 ± 0.2 ns)^−1 (ns)^−1 | readily soluble | – | – | – | – | – | – |
| COc1cc(-c2ccncc2)c(OC)cc1-c1ccncc1 [Dye 6] | 0.63 | – | – | – | – | (0.6 ± 0.3 ps)^−1 (ps)^−1 | (52 ± 1 ps)^−1 (ps)^−1 | (4.05 ± 0.02 ns)^−1 (ns)^−1 | (163 ± 2 ns)^−1 (ns)^−1 | (11.0 ± 0.2 ns)^−1 (ns)^−1 | (6.43 ± 0.05 ns)^−1 (ns)^−1 | – | – | – | – | – | – | – |
